{
  "source": "patent US4806604A",
  "about": "“Photosensitive calcium chelators” (Regents of the University of California, priority 1987, dated 1989)",
  "key": {"[1]": {"assay": "Ca^2+ affinity (dissociation constant) of the chelators", "assay_type": "binding", "conditions": "for Ca^2+ affinity (rank in words): conformational explanation of Table I"}, "[2]": {"assay": "Mg^2+ affinity (dissociation constant) of the chelators", "assay_type": "binding"}, "[3]": {"assay": "Release of Ca^2+ after flash photolysis", "conditions": "after a submillisecond light flash"}, "[4]": {"assay": "Ca^2+:Mg^2+ selectivity (rejection of Mg^2+)", "assay_type": "binding", "conditions": "22° C., 0.1M ionic strength"}, "[5]": {"conditions": "EDTA analogs vs EDTA parent; cited from earlier work"}, "[6]": {"conditions": "Tsien, 1980; read-out: Kd (Ca^2+); cited from earlier work"}, "[7]": {"conditions": "cytosolic free calcium 2+ typical for resting cells; cited from earlier work"}},
  "note": "Where two headings read alike, the source gives them in different places.",
  "data": [
    {"smiles": "Cc1ccc(N(CC(=O)O)CC(=O)O)c(O[C@@H]2CCC[C@@H]2Oc2cc(C(=O)c3cc4c(cc3N=O)OCO4)ccc2N(CC(=O)O)CC(=O)O)c1", "note": "(relative stereo) [VIII]", "values": [
      {"measurement": "Kd", "setting": "[1]; after photolysis of nitr-7 to the nitrosobenzophenone, read-out: dissociation constant for Ca^2+ upon photolysis", "value": 3, "unit": "µM"}
    ]},
    {"smiles": "Cc1ccc(N(CC(=O)O)CC(=O)O)c(O[C@@H]2CCC[C@@H]2Oc2ccccc2N(CC(=O)O)CC(=O)O)c1", "note": "(relative stereo) [Va]", "values": [
      {"measurement": "Kd", "setting": "[1]; Table I, Chelator V after saponification, before photolysis, read-out: Kd for Ca^2+", "value": 0.02, "unit": "µM"},
      {"measurement": "Ca^2+ affinity (rank in words)", "setting": "[1]", "value": "highest Ca^2+ affinities"},
      {"measurement": "higher affinity for Ca^2+ than the trans-isomer", "setting": "[1]; cyclopentanediyl series, cis (Va) vs trans (Vb)", "value": "300 -fold"},
      {"measurement": "Kd", "setting": "[2]; Table I, Chelator V after saponification, read-out: Kd for Mg^2+", "value": 4200, "unit": "µM"}
    ]},
    {"smiles": "Cc1ccc(N(CC(=O)O)CC(=O)O)c(O[C@H]2CCC[C@H]2Oc2cc(C(O)c3cc4c(cc3[N+](=O)[O-])OCO4)ccc2N(CC(=O)O)CC(=O)O)c1", "note": "(relative stereo) [nitr-7, cis-1-(2-bis(carboxymethyl)amino-5-(1-hydroxy-1-(2-nitro-4,5-methylenedioxyphenyl)methyl)phenoxy)-2-(2-bis(carboxymethyl)amino-5-methylphenoxy)cyclopentane]", "values": [
      {"measurement": "Kd", "setting": "[1]; 22° C., 0.1M ionic strength, before photolysis, read-out: dissociation constant for Ca^2+", "value": 0.053, "unit": "µM"},
      {"measurement": "Ca^2+ affinity (rank in words)", "setting": "[1]", "value": "highest Ca^2+ affinities"},
      {"measurement": "Kd", "setting": "[2]; 22° C., 0.1M ionic strength, read-out: dissociation constant for Mg^2+", "value": 5700, "unit": "µM"},
      {"measurement": "exponential time constant of Ca^2+ release", "setting": "[3]", "value": 1.8, "unit": "millisecond"},
      {"measurement": "Rejection of Mg^2+", "setting": "[4]", "value": "> 10^5"}
    ]},
    {"smiles": "O=C(O)CN(CC(=O)O)[C@H]1CCCC[C@@H]1N(CC(=O)O)CC(=O)O", "note": "(relative stereo) [trans-cyclohexanediyl analog]", "values": [
      {"measurement": "stronger Ca^2+ affinity than the parent", "setting": "[5]", "value": "324 -fold"}
    ]},
    {"smiles": "O=C(O)CN(CC(=O)O)[C@H]1CCC[C@@H]1N(CC(=O)O)CC(=O)O", "note": "(relative stereo) [trans-cyclopentanediyl analog]", "values": [
      {"measurement": "higher affinity for Ca^2+ than the parent", "setting": "[5]", "value": "3.7 -fold"}
    ]},
    {"smiles": "O=C(O)CN(CC(=O)O)c1ccccc1OCCOc1ccccc1N(CC(=O)O)CC(=O)O", "note": "[BAPTA, 1,2-bis(2-aminophenoxy)ethane N,N,N'N'-tetraacetic acid]", "values": [
      {"measurement": "Kd", "setting": "[6]", "value": 0.1, "unit": "µM"}
    ]},
    {"smiles": "O=C(O)CN(CC(=O)O)[C@@H]1CCCC[C@@H]1N(CC(=O)O)CC(=O)O", "note": "[cis-cyclohexanediyl analog]", "values": [
      {"measurement": "weaker Ca^2+ affinity than the parent", "setting": "[5]", "value": "17 -fold"}
    ]},
    {"smiles": "COC(c1ccc(N(CC(=O)O)CC(=O)O)c(OCCOc2cc(C)ccc2N(CC(=O)O)CC(=O)O)c1)c1cc2c(cc1[N+](=O)[O-])OCO2", "note": "(stereo not drawn) [nitr-2]", "values": [
      {"measurement": "fraction of unphotolyzed chelator molecules bearing calcium 2+ ions", "setting": "[7]", "value": "1/2"}
    ]}
  ]
}
